# Test results taken from ChEMBL document CHEMBL5465560, “Selectivity Literature for EUbOPEN Chemogenomic Library” (2024).
# Legend:
# [1] = molecular target: Ribosomal protein S6 kinase alpha-5 (Homo sapiens) (UniProt O75582); test: Selectivity interaction (KinomeScan (DiscoverX)) EUB0000311b RPS6KA5; conditions: at 1 µM
# [2] = molecular target: T1, Prostaglandin G/H synthase 2 (Homo sapiens) (UniProt P35354); test: Selectivity interaction (Safety Panel 44tm (Eurofins)) EUB0000162b PTGS2; conditions: at 10 µM
# T1 sequence (whole entry): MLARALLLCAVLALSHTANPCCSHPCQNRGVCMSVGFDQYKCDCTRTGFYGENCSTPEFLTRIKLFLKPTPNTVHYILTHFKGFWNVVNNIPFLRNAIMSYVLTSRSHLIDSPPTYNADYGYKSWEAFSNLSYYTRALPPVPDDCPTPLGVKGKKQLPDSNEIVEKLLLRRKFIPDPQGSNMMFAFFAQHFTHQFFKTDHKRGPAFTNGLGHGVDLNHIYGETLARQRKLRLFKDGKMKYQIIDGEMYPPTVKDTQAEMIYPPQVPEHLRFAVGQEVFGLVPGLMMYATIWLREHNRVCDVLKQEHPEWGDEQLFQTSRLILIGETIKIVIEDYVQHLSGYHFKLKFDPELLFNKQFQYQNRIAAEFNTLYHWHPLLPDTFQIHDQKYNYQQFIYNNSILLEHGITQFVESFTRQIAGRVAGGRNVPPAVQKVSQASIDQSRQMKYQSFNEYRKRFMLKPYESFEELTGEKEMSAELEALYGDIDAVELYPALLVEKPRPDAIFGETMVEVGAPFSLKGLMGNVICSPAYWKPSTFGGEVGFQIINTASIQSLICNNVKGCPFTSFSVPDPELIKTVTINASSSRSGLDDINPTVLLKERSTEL
# [3] = molecular target: Mitogen-activated protein kinase kinase kinase 20 (Homo sapiens) (UniProt Q9NYL2); test: Selectivity interaction (KinomeScan (DiscoverX)) EUB0000229b MAP3K20; conditions: at 10 µM
# [4] = molecular target: Maternal embryonic leucine zipper kinase (Homo sapiens) (UniProt Q14680); test: Selectivity interaction (KinomeScan (DiscoverX)) EUB0000229b MELK; conditions: at 10 µM
# [5] = molecular target: Platelet-derived growth factor receptor beta (Homo sapiens, UniProt P09619); test: Selectivity interaction (Kinase panel (enzymatic assay)) EUB0000595a PDGFRB
# [6] = molecular target: Rho-associated protein kinase 2 (Homo sapiens, UniProt O75116); test: Selectivity interaction (Kinase screening (Upstate/Millipore)) EUB0000604a ROCK2
# [7] = molecular target: Mitogen-activated protein kinase 8 (Homo sapiens, UniProt P45983); conditions: at 10 µM
# Sequence of Mitogen-activated protein kinase 8 (P45983 whole entry): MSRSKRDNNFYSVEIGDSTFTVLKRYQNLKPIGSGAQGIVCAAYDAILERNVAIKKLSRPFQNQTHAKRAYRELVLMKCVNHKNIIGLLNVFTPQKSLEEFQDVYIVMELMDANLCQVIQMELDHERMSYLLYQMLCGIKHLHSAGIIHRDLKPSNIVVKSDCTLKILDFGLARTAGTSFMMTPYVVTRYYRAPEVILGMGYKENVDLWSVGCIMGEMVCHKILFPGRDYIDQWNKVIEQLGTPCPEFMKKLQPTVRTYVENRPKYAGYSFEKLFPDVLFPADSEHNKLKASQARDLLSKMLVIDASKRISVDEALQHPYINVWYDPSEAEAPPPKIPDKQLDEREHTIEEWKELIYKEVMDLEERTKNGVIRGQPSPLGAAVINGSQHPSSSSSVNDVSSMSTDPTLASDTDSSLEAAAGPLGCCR
# [8] = molecular target: Calcium/calmodulin-dependent protein kinase type II subunit gamma (Homo sapiens) (UniProt Q13555); conditions: at 10 µM
# [9] = molecular target: Serine/threonine-protein kinase Nek6 (Homo sapiens) (UniProt Q9HC98); test: Selectivity interaction (ActivX KiNativ screen (ex vivo kinase selectivity in human PBMCs)) EUB0001619a NEK6; format: cell-based; conditions: PBMC, at 1 µM
# [10] = molecular target: Ephrin type-A receptor 4 (Homo sapiens, UniProt P54764); test: Selectivity interaction (KinomeScan (DiscoverX)) EUB0000655a EPHA4; conditions: at 10 µM
# [11] = system: Phosphatidylinositol 4,5-bisphosphate 3-kinase catalytic subunit alpha isoform (Homo sapiens), P42336 [H1047L]; test: (§1) Selectivity interaction (KinomeScan (DiscoverX)) EUB0000695a PIK3CA; conditions: at 100 nM
# Sequence of Phosphatidylinositol 4,5-bisphosphate 3-kinase catalytic subunit alpha isoform (Homo sapiens), P42336 [H1047L] (P42336 whole entry H1047L, canonical isoform): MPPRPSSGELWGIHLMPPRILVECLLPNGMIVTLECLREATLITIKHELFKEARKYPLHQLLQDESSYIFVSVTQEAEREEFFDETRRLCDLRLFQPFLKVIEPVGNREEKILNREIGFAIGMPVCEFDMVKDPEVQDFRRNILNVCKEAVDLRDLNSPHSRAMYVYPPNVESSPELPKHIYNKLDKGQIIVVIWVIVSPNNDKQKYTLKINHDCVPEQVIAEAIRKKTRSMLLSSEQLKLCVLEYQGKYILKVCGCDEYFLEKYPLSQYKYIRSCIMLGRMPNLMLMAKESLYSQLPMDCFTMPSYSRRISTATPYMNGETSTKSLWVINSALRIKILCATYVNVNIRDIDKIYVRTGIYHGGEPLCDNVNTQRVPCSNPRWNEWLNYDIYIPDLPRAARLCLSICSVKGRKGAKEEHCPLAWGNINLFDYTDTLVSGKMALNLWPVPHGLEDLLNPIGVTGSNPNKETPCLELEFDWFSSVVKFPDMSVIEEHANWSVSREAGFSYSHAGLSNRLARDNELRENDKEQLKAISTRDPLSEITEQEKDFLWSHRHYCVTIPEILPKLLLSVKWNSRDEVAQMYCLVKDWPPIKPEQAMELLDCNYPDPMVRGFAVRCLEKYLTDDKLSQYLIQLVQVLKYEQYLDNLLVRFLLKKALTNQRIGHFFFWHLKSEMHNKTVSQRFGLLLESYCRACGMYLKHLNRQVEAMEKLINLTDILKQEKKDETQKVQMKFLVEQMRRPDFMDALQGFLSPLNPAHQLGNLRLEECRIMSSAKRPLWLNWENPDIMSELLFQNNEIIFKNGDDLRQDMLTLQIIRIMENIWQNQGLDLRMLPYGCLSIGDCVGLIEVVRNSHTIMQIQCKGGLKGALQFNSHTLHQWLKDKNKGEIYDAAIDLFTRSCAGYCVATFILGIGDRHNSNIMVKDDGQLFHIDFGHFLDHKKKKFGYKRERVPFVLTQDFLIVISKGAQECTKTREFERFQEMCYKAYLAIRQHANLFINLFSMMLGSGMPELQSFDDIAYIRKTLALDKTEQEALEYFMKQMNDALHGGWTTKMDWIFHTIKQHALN
# [12] = molecular target: Phosphatidylinositol 4,5-bisphosphate 3-kinase catalytic subunit alpha isoform (Homo sapiens) (UniProt P42336); test: as §1; conditions: at 100 nM
# [13] = system: Phosphatidylinositol 4,5-bisphosphate 3-kinase catalytic subunit alpha isoform (Homo sapiens), P42336 [H1047Y]; test: as §1; conditions: at 100 nM
# [14] = system: Phosphatidylinositol 4,5-bisphosphate 3-kinase catalytic subunit alpha isoform (Homo sapiens), P42336 [I800L]; test: as §1; conditions: at 100 nM
# Sequence of Phosphatidylinositol 4,5-bisphosphate 3-kinase catalytic subunit alpha isoform (Homo sapiens), P42336 [I800L] (P42336 whole entry I800L, canonical isoform): as the sequence (P42336 whole entry H1047L, canonical isoform) above, with I800L, L1047H counted along it
# [15] = system: Phosphatidylinositol 4,5-bisphosphate 3-kinase catalytic subunit alpha isoform (Homo sapiens), P42336 [C420R]; test: as §1; conditions: at 100 nM
# [16] = system: Phosphatidylinositol 4,5-bisphosphate 3-kinase catalytic subunit alpha isoform (Homo sapiens), P42336 [Q546K]; test: as §1; conditions: at 100 nM
# [17] = system: Phosphatidylinositol 4,5-bisphosphate 3-kinase catalytic subunit alpha isoform (Homo sapiens), P42336 [E545K]; test: as §1; conditions: at 100 nM
# Sequence of Phosphatidylinositol 4,5-bisphosphate 3-kinase catalytic subunit alpha isoform (Homo sapiens), P42336 [E545K] (P42336 whole entry E545K, canonical isoform): as the sequence (P42336 whole entry H1047L, canonical isoform) above, with E545K, L1047H counted along it
# [18] = system: Phosphatidylinositol 4,5-bisphosphate 3-kinase catalytic subunit alpha isoform (Homo sapiens), P42336 [E542K]; test: as §1; conditions: at 100 nM
# [19] = system: Phosphatidylinositol 4,5-bisphosphate 3-kinase catalytic subunit alpha isoform (Homo sapiens), P42336 [M1043I]; test: as §1; conditions: at 100 nM
# [20] = system: Phosphatidylinositol 4,5-bisphosphate 3-kinase catalytic subunit alpha isoform (Homo sapiens), P42336 [E545A]; test: as §1; conditions: at 100 nM
# [21] = molecular target: Protein-tyrosine kinase 2-beta (Homo sapiens) (UniProt Q14289); test: Selectivity interaction (KinomeScan (DiscoverX)) EUB0000607a PTK2B; conditions: at 10 µM
# Sequence of Protein-tyrosine kinase 2-beta (Homo sapiens) (Q14289 whole entry, looked up): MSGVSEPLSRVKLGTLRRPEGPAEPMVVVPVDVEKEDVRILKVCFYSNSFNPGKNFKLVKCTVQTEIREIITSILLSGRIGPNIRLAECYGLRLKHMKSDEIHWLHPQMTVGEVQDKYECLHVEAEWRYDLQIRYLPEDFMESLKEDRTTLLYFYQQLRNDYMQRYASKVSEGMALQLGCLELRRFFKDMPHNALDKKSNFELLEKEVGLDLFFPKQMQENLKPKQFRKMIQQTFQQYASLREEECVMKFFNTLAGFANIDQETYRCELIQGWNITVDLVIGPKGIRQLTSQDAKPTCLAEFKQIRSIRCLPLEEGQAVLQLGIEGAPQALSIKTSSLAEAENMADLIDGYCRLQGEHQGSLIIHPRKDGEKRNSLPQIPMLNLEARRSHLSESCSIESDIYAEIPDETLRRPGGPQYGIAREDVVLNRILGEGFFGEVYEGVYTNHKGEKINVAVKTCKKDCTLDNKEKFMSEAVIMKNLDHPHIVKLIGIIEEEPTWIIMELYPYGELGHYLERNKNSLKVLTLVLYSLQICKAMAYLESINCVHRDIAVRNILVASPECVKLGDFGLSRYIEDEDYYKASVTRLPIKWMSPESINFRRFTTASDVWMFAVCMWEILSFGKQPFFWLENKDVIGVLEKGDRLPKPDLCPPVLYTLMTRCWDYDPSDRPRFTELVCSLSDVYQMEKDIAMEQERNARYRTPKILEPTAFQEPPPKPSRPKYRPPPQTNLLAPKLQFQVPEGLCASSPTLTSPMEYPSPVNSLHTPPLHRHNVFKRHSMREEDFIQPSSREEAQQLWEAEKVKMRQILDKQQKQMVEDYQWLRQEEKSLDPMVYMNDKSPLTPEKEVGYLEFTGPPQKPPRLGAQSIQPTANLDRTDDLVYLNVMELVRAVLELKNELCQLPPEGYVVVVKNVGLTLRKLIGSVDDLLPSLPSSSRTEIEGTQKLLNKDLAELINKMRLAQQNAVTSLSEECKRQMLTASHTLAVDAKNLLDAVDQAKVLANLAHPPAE
# [22] = molecular target: Ephrin type-A receptor 2 (Homo sapiens) (UniProt P29317); test: Selectivity interaction (Kinase panel (Z-LYTE Assay)) EUB0001632a EPHA2; conditions: at 10 µM
# [23] = molecular target: Mitogen-activated protein kinase 10 (Homo sapiens, UniProt P53779); test: Selectivity interaction (ProQinase) EUB0000171b MAPK10
# Sequence of Mitogen-activated protein kinase 10 (P53779 whole entry): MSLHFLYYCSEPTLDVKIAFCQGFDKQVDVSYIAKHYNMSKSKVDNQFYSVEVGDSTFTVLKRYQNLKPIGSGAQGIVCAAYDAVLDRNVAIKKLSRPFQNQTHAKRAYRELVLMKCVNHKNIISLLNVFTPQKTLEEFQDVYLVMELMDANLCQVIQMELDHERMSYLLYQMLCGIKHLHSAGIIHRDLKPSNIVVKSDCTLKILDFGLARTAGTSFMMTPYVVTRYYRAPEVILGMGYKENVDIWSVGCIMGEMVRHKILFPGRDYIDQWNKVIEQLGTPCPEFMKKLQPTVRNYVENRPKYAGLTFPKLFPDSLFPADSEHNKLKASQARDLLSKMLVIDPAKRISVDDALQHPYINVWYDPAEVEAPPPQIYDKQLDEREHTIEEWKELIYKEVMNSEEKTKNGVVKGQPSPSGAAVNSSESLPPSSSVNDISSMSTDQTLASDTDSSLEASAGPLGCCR
smiles,measurement,setting,value
CCc1ccccc1C(=O)Nc1n[nH]c2c(C)c(F)c(C3C(C#N)=C(C)N(C)C(C)=C3C#N)cc12 [BAY-3827],% of control,[1],1%
CN(C)C(=O)Cn1cc(-c2ccc(-c3cncc4ccccc34)cc2)cn1,% of control,[2],81%
COc1cc(N(C)c2ccnc3ccc(C(F)(F)F)cc23)cc(OC)c1OC,% binding,[3],91%
same,% binding,[4],91%
COCC(=O)NC/C=C/c1ccc2ncnc(Nc3ccc(Oc4ccc(C)nc4)c(C)c3)c2c1 [CP-724714],IC50,[5],> 10 µM
Cc1cnc(Nc2ccc(F)cc2Cl)nc1-c1c[nH]c(C(=O)N[C@H](CO)c2cccc(Cl)c2)c1,% of inhibition,[6],57%
Cc1cc([C@@H](C)Nc2ccccc2C(=O)O)c2nc(N3CCOCC3)cc(=O)n2c1 [AZD-6482],% of control,[7],100%
same,% of control,[8],98%
N#Cc1cccc(-c2c[nH]c3ncnc(N4CCOCC4)c23)c1,% of inhibition,[9],-5%
CN(C)CCOc1ccc(-c2nc(-c3ccncc3)c(-c3ccc4c(c3)CC/C4=N\O)[nH]2)cc1,% of control,[10],100%
Cc1cc(F)c(C(=O)Nc2cccc(-c3nncn3C(C)C)n2)cc1-n1cnc(C2CC2)c1,% of control,[11],100%
same,% of control,[12],100%
same,% of control,[13],100%
same,% of control,[14],89%
same,% of control,[15],100%
same,% of control,[16],100%
same,% of control,[17],99%
same,% of control,[18],100%
same,% of control,[19],93%
same,% of control,[20],100%
CNC(=O)Nc1ccc(-c2nc(N3CC4CCC(C3)O4)c3cnn(C4CCC5(CC4)OCCO5)c3n2)cc1,% of control,[21],100%
Cn1cc(-n2cnc3c(NCc4nc5cc(Cl)c(Cl)cc5[nH]4)nc(N4CCOCC4)nc32)cn1,% of control,[22],14.4%
C=CC(=O)Nc1cccc(C(=O)Nc2ccc(Nc3cc(-c4[nH]c(SC)nc4C)ccn3)cc2)c1,% of control,[23]; at 1 µM,3%
same,% of control,[23]; at 5 µM,0%
